Calls of active or inactive are those of the source. For most assays here, no stated cut-off is given here; in the data, actives have a measured Kd and inactives only a lower limit.
Columns and labels:
[1] = target: Tyrosine-protein kinase Lck (Homo sapiens, UniProt P06239)
[2] = target: T1, Serine/threonine-protein kinase TBK1 (Homo sapiens, UniProt Q9UHD2)
T1 sequence (Q9UHD2 whole entry): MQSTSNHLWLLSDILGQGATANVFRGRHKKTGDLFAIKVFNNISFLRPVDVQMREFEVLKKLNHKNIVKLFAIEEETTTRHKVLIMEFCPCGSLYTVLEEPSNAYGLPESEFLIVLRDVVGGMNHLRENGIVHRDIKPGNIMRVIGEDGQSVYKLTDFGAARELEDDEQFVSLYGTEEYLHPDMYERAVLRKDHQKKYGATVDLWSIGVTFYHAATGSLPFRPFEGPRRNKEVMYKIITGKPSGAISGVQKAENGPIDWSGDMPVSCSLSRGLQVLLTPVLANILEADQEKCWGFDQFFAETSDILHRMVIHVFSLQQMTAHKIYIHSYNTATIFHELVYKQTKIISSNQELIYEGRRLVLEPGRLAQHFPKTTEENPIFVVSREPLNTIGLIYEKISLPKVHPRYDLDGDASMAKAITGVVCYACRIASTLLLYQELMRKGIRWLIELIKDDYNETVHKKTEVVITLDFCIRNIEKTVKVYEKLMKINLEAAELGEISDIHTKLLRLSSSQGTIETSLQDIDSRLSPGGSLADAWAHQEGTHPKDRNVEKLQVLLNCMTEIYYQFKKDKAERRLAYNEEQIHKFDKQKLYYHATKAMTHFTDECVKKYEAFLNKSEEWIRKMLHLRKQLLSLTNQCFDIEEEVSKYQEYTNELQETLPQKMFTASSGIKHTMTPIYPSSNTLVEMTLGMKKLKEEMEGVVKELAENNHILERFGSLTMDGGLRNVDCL

[3] = target: Chromodomain-helicase-DNA-binding protein 4 (Homo sapiens, UniProt Q14839)
[4] = target: T2, Membrane-associated tyrosine- and threonine-specific cdc2-inhibitory kinase (Homo sapiens, UniProt Q99640)
T2 sequence (Q99640 whole entry): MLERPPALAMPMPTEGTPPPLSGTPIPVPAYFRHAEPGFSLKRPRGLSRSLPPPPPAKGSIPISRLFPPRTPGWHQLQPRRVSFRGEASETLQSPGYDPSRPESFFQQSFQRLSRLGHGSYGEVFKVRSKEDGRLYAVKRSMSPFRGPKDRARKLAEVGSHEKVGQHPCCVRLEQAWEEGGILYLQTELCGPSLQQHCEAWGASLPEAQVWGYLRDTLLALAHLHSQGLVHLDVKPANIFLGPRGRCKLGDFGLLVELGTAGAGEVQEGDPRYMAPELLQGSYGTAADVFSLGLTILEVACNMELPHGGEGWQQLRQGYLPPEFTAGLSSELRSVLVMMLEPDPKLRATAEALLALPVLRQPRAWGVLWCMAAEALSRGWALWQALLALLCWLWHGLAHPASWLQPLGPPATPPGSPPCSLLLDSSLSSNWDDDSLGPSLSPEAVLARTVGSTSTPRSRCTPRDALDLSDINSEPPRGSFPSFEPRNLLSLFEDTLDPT

[5] = target: Rho-associated protein kinase 2 (Homo sapiens, UniProt O75116)
[6] = target: T3, ATP-dependent RNA helicase DDX1 (Homo sapiens, UniProt Q92499)
T3 sequence (Q92499 whole entry): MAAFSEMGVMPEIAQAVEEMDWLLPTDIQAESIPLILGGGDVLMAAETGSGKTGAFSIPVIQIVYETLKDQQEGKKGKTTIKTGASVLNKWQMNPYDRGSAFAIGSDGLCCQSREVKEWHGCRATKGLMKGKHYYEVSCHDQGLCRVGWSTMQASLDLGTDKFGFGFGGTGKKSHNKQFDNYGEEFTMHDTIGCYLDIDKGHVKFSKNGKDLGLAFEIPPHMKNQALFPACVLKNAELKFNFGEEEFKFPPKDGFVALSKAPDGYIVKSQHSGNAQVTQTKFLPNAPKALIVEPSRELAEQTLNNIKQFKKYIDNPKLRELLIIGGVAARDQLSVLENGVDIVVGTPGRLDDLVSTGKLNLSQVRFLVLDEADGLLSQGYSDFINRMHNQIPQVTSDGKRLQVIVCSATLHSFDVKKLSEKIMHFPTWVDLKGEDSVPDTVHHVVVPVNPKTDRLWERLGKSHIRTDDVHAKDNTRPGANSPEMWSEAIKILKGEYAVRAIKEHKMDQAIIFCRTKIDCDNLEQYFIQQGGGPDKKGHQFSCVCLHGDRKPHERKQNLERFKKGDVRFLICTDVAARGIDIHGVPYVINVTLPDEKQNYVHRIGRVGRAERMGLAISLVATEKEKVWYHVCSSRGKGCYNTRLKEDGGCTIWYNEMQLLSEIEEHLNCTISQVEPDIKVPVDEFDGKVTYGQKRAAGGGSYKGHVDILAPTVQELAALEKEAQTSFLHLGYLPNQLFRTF

[7] = target: T4, Serine/threonine-protein kinase ULK3 (Homo sapiens, UniProt Q6PHR2)
T4 sequence (Q6PHR2 whole entry): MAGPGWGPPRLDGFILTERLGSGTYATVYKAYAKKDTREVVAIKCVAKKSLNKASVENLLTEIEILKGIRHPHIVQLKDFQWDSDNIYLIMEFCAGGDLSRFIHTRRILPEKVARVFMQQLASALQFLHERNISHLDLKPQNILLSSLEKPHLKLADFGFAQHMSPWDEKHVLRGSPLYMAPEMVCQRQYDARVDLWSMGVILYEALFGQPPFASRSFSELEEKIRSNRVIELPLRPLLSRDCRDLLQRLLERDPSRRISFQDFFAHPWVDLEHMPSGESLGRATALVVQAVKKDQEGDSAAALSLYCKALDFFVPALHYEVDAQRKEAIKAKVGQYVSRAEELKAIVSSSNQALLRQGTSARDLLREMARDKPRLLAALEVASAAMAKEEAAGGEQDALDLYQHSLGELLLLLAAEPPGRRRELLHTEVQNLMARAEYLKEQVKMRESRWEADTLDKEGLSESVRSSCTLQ

Chain of Chromodomain-helicase-DNA-binding protein 4 (Q14839 whole entry): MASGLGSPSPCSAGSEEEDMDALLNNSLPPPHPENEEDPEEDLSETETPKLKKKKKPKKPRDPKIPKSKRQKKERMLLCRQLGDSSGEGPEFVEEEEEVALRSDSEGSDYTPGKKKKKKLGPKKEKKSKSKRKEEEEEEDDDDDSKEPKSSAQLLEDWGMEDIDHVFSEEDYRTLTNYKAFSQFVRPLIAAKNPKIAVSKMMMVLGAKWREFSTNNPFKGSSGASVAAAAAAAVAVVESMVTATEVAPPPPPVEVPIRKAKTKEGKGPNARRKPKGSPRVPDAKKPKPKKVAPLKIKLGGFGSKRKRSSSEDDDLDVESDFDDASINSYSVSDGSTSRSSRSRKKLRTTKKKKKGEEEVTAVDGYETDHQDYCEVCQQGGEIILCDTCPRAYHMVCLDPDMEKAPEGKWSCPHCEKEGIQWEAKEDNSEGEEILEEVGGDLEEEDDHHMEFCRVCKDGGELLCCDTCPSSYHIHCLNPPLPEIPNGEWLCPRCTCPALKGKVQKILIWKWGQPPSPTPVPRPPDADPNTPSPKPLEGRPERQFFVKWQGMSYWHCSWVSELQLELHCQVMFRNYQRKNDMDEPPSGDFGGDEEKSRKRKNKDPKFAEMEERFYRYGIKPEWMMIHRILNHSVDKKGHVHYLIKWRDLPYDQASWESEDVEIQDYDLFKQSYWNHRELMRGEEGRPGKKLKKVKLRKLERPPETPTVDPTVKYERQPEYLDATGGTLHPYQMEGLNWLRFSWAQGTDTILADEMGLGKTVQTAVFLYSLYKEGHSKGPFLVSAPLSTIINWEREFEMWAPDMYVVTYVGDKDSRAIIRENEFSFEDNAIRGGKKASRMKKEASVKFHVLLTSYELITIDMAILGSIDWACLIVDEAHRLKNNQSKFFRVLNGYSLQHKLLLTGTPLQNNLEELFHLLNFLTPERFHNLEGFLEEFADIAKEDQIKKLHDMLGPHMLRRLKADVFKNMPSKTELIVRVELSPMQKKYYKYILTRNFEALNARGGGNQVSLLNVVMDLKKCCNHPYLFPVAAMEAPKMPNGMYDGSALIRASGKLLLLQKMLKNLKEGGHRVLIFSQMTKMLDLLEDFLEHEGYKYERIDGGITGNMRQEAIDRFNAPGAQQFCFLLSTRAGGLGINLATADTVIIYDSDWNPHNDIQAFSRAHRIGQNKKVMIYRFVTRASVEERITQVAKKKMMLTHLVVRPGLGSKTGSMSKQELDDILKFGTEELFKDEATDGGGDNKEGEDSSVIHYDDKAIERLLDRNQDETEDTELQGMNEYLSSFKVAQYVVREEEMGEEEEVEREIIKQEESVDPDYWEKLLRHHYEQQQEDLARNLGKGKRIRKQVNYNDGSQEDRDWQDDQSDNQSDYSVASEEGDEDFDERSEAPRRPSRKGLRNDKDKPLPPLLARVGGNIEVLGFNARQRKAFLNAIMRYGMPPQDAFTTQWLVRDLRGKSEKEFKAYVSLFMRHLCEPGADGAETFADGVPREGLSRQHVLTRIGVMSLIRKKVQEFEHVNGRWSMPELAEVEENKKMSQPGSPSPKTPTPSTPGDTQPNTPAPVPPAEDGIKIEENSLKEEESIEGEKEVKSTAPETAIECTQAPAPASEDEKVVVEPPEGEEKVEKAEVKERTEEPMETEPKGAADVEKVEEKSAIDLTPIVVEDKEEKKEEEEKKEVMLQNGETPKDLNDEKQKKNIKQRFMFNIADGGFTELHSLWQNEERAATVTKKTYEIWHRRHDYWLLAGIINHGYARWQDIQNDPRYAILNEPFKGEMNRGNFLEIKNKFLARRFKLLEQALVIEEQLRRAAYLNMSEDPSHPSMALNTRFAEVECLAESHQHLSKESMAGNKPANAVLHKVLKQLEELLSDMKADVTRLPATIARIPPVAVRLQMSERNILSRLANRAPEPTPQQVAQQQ
Chain of Tyrosine-protein kinase Lck (P06239 whole entry): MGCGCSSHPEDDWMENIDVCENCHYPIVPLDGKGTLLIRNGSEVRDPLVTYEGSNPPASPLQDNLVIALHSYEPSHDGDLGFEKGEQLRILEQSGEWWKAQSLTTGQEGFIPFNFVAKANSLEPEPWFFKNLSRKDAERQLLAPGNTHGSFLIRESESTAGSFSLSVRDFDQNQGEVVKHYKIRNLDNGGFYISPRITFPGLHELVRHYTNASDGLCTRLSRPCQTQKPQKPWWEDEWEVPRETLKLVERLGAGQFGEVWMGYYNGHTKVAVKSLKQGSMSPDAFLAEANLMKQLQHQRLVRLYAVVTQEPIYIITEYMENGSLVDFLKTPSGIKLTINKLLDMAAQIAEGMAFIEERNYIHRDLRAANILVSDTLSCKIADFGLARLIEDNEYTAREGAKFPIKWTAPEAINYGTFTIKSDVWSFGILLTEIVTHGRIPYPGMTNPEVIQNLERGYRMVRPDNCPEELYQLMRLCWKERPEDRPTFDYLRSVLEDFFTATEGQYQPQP
Chain of Rho-associated protein kinase 2 (O75116 whole entry): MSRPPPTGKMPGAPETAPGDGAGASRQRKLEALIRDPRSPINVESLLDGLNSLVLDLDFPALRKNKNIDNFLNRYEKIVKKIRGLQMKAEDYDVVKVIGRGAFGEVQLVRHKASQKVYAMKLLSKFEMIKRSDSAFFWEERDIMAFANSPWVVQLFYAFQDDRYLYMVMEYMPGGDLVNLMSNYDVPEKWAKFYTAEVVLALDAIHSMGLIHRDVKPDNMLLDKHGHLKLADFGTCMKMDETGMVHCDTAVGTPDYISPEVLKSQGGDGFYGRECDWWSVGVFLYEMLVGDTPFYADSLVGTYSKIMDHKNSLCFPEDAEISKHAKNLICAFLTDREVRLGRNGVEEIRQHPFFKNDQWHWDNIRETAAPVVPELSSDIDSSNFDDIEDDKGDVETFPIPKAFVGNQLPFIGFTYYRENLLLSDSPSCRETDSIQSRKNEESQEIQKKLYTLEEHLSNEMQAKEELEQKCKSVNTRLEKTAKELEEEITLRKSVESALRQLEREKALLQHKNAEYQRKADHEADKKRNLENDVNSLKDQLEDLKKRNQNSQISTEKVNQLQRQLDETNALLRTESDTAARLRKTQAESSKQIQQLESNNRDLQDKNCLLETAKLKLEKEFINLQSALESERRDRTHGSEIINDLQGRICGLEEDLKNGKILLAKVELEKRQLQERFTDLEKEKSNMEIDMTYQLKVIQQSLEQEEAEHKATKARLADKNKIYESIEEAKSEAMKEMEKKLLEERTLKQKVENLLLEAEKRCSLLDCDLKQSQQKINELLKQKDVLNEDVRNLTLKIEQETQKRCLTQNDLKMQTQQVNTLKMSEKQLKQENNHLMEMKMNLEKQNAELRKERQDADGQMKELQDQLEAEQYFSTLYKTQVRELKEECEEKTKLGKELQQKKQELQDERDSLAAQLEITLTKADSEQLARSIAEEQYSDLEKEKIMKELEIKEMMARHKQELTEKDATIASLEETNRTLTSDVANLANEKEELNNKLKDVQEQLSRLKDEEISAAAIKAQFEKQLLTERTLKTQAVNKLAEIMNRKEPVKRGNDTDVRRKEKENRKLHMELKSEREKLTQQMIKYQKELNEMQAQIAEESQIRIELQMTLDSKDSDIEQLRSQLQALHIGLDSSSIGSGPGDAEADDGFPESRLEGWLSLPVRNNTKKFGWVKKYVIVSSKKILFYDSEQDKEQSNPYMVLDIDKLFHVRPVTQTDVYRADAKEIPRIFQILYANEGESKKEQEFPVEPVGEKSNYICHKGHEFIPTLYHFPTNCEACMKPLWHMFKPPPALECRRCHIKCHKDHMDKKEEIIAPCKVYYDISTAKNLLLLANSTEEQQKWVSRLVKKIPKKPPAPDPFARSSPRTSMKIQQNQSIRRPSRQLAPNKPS

Row | Kd [1] | Kd [2] | Kd [3] | Kd [4] | Kd [5] | Kd [6] | Kd [7] | SMILES
1 | > 30 µM (inactive) | > 30 µM (inactive) | > 30 µM (inactive) | > 30 µM (inactive) | > 30 µM (inactive) | > 30 µM (inactive) | > 30 µM (inactive) | Cn1cc(-c2ccc(F)c(C(F)(F)F)c2)nc1C1CCN(c2ncnc3[nH]ncc23)CC1 [LY-2584702]
2 | > 30 µM (inactive) | > 30 µM (inactive) | > 30 µM (inactive) | > 30 µM (inactive) | > 30 µM (inactive) | > 30 µM (inactive) | > 30 µM (inactive) | O=C1NC(=O)/C(=C/c2ccc3nccc(-c4ccncc4)c3c2)S1 [GSK-1059615]
3 | > 30 µM (inactive) | > 30 µM (inactive) | > 30 µM (inactive) | > 30 µM (inactive) | 0.756 µM (active) | > 30 µM (inactive) | > 30 µM (inactive) | CCS(=O)(=O)N1CC(CC#N)(n2cc(-c3ncnc4[nH]ccc34)cn2)C1 [BARICITINIB]
4 | > 30 µM (inactive) | 0.561 µM (active) | > 30 µM (inactive) | > 30 µM (inactive) | 3.97 µM (active) | > 30 µM (inactive) | 0.297 µM (active) | O=C(Nc1ccc(-c2ccnc(Nc3ccc(N4CCOCC4)cc3)n2)cc1)C1CCCN1 (centres undefined) [XL-019]
5 | > 30 µM (inactive) | > 30 µM (inactive) | > 30 µM (inactive) | > 30 µM (inactive) | > 30 µM (inactive) | > 30 µM (inactive) | > 30 µM (inactive) | COc1cc(CCc2cc(NC(=O)c3ccc(N4C[C@@H](C)N[C@@H](C)C4)cc3)n[nH]2)cc(OC)c1 [AZD-4547]
6 | > 30 µM (inactive) | > 30 µM (inactive) | > 30 µM (inactive) | > 30 µM (inactive) | > 30 µM (inactive) | > 30 µM (inactive) | > 30 µM (inactive) | COc1cc(OC)c(/C=C/S(=O)(=O)Cc2ccc(OC)c(NCC(=O)O)c2)c(OC)c1 [RIGOSERTIB]
7 | > 30 µM (inactive) | > 30 µM (inactive) | > 30 µM (inactive) | > 30 µM (inactive) | > 30 µM (inactive) | > 30 µM (inactive) | > 30 µM (inactive) | CN1CCC(CNc2ccc3ncc(-c4cccc(OC(F)(F)F)c4)n3n2)CC1 [SGI-1776]
8 | > 30 µM (inactive) | > 30 µM (inactive) | > 30 µM (inactive) | > 30 µM (inactive) | > 30 µM (inactive) | > 30 µM (inactive) | > 30 µM (inactive) | Cc1c(F)cc(C(=O)NC2CC2)cc1-c1ccc(C(=O)NCC(C)(C)C)cn1 [LOSMAPIMOD]
9 | > 30 µM (inactive) | > 30 µM (inactive) | > 30 µM (inactive) | > 30 µM (inactive) | > 30 µM (inactive) | > 30 µM (inactive) | > 30 µM (inactive) | CC[C@@H]1C(=O)N(C)c2cnc(Nc3ccc(C(=O)N[C@H]4CC[C@H](N5CCN(CC6CC6)CC5)CC4)cc3OC)nc2N1C(C)C [VOLASERTIB]
10 | > 30 µM (inactive) | > 30 µM (inactive) | > 30 µM (inactive) | > 30 µM (inactive) | > 30 µM (inactive) | > 30 µM (inactive) | > 30 µM (inactive) | Cc1cc([C@@H](C)Nc2ccccc2C(=O)O)c2nc(N3CCOCC3)cc(=O)n2c1 [AZD-6482]
11 | 0.092 µM (active) | > 30 µM (inactive) | > 30 µM (inactive) | > 30 µM (inactive) | > 30 µM (inactive) | > 30 µM (inactive) | > 30 µM (inactive) | COCCNCc1ccc(-c2cc3nccc(Oc4ccc(NC(=S)NC(=O)Cc5ccc(F)cc5)cc4F)c3s2)nc1 [GLESATINIB]
12 | > 30 µM (inactive) | > 30 µM (inactive) | > 30 µM (inactive) | > 30 µM (inactive) | > 30 µM (inactive) | > 30 µM (inactive) | > 30 µM (inactive) | CCn1c(=O)c(-c2cc[nH]n2)cc2c(C)nc(N)nc21 [VOXTALISIB]
13 | > 30 µM (inactive) | > 30 µM (inactive) | > 30 µM (inactive) | > 30 µM (inactive) | > 30 µM (inactive) | > 30 µM (inactive) | > 30 µM (inactive) | COc1ccc(-c2ccc3c(N4CCOC[C@@H]4C)nc(N4CCOC[C@@H]4C)nc3n2)cc1CO [AZD-8055]
14 | > 30 µM (inactive) | > 30 µM (inactive) | > 30 µM (inactive) | > 30 µM (inactive) | > 30 µM (inactive) | > 30 µM (inactive) | > 30 µM (inactive) | CN(C)C(=O)c1cc2cnc(Nc3ccc(N4CCNCC4)cn3)nc2n1C1CCCC1 [RIBOCICLIB]
15 | > 30 µM (inactive) | > 30 µM (inactive) | > 30 µM (inactive) | > 30 µM (inactive) | > 30 µM (inactive) | > 30 µM (inactive) | > 30 µM (inactive) | Cc1cc2c(F)c(Oc3ncnn4cc(OC[C@@H](C)OC(=O)[C@H](C)N)c(C)c34)ccc2[nH]1 [BRIVANIB ALANINATE]

Row | SMILES | Kd [1] | Kd [2] | Kd [3] | Kd [4] | Kd [5] | Kd [6] | Kd [7]
16 | COC(=O)[C@@]1(O)C[C@H]2O[C@]1(C)n1c3ccccc3c3c4c(c5c6ccccc6n2c5c31)C(=O)NC4 [K-252A] | > 30 µM (inactive) | 1.16 µM (active) | > 30 µM (inactive) | > 30 µM (inactive) | > 30 µM (inactive) | > 30 µM (inactive) | 0.107 µM (active)
17 | Cc1ccc(-n2nc(C(C)(C)C)cc2NC(=O)NCc2cc(F)ccc2Oc2ccc3c(cnn3CCO)c2)cc1 [PEXMETINIB] | > 30 µM (inactive) | > 30 µM (inactive) | > 30 µM (inactive) | > 30 µM (inactive) | > 30 µM (inactive) | > 30 µM (inactive) | > 30 µM (inactive)

Reference: ChEMBL document CHEMBL3991601, “The target landscape of clinical kinase drugs” (Science, 2017)
